# In patent publication US11231416B2, “Virus-like particle (VLP) based small molecule-protein interaction trap” (VIB VZW, priority 2015, dated 2022):
# Assays:
# Assay in all cases: Viral trapping in VLPs, MS analysis
# Format in all cases: binding
# ATL2 = target: T1, ATL2 (Homo sapiens, UniProt Q8NHH9); settings: all proteins (incl. low confidence identifications)
# T1 construct: endogenous in cells; host or cells: HEK293T
# Experimental: (§1) For mass spectrometry, 10^7 HEK293T cells were seeded in five flasks (75 cm^2) and transfected the next day with a total of 15 μg DNA per flask using polyethylene imine reagent. The following DNA quantities were used per flask: 7.5 μg of GAG-eDHFR, 5.4 μg of mock vector and 2.1 μg of a 50/50 mix of pMD2.G and pcDNA3-FLAG-VSV-G. The small molecule fusions were added immediately after transfection to the producing cells at a concentration of 1 μM. The same dilution of dimethyl sulfoxide (DMSO) was added in control experiments to control the effect of this chemical on the cells. The cellular supernatant was harvested after 32 hours and was centrifuged for 3 minutes at 450×g to remove cellular debris. The cleared supernatant was then filtered using 0.45 μm filters (Millipore). A total of 100 μl MyOne™ Streptavidin T1 beads (Life Technologies) pre-loaded with 10 μg ANTI-FLAG® BioM2-Biotin antibody (Sigma-Aldrich®) was used to bind the tagged particles. Particles were allowed to bind for 2 hours by end-over-end rotation. The total supernatant was processed in three consecutive binding steps. Bead-particle complexes were washed once with washing buffer (TWB: 20 mM Tris-HCl pH 7.5, 150 mM NaCl) and were then eluted with FLAG peptide (200 μg/ml in TWB) and lysed by addition of SDS to a final concentration of 0.1%. After 5 minutes, SDS was removed using HiPPR Detergent Removal Spin Columns (Pierce, Thermo Scientific) followed by boiling and overnight digestion with 0.5 μg sequence-grade trypsin (Promega). After acidification (0.1% TFA final), the peptides were separated by nano-LC and directly analyzed with a Q Exactive instrument (Thermo Scientific).
# (§2) For tamoxifen, four biological repeats were performed where the cells were treated with MTX-PEG6-tamoxifen after transfection. The obtained protein lists after viral trapping and MS analysis were challenged with protein lists coming from the four DMSO controls, the 19 control experiments and the lists obtained for the MTX-PEG6-simvastatin and MTX-PEG6-reversine (see below) for a total of 30 samples.
# ECE1 = target: T2, ECE1 (Homo sapiens, UniProt P42892)
# T2 construct: endogenous in cells; host or cells: HEK293T
# Experimental: as §1, §2
# EI24 = target: T3, EI24 (Homo sapiens, UniProt O14681); settings: all proteins (incl. low confidence identifications)
# T3 construct: endogenous in cells; host or cells: HEK293T
# Experimental: as §1, §2
# EPHX1 = target: T4, EPHX1 (Homo sapiens, UniProt P07099); settings: all proteins (incl. low confidence identifications)
# T4 construct: endogenous in cells; host or cells: HEK293T
# Experimental: as §1, §2
# ESYT2 = target: T5, ESYT2 (Homo sapiens, UniProt A0FGR8)
# T5 construct: endogenous in cells; host or cells: HEK293T
# Experimental: as §1, §2
# ILVBL = target: T6, ILVBL (Homo sapiens, UniProt A1L0T0); settings: all proteins (incl. low confidence identifications)
# T6 construct: endogenous in cells; host or cells: HEK293T
# Experimental: as §1, §2
# PCSK5 = target: T7, PCSK5 (Homo sapiens, UniProt Q92824); settings: all proteins (incl. low confidence identifications)
# T7 construct: endogenous in cells; host or cells: HEK293T
# Experimental: as §1, §2
# PRAF2 = target: T8, PRAF2 (Homo sapiens, UniProt O60831); settings: all proteins (incl. low confidence identifications)
# T8 construct: endogenous in cells; host or cells: HEK293T
# Experimental: as §1, §2
# REEP6 = target: T9, REEP6 (Homo sapiens, UniProt Q96HR9)
# T9 construct: endogenous in cells; host or cells: HEK293T
# Experimental: as §1, §2
# TMPRSS13 = target: T10, TMPRSS13 (Homo sapiens, UniProt Q9BYE2); settings: all proteins (incl. low confidence identifications)
# T10 construct: endogenous in cells; host or cells: HEK293T
# Experimental: as §1, §2
# UBQLN2 = target: T11, UBQLN2 (Homo sapiens, UniProt Q9UHD9)
# T11 construct: endogenous in cells; host or cells: HEK293T
# Experimental: as §1, §2
# ZMPSTE24 = target: T12, ZMPSTE24 (Homo sapiens, UniProt O75844); settings: all proteins (incl. low confidence identifications)
# T12 construct: endogenous in cells; host or cells: HEK293T
# Experimental: as §1, §2
# [1] = all proteins (incl. low confidence identifications)
# [2] = proteins identified with >1 peptide (high confidence)
# T9 sequence (Q96HR9 1-184 isoform Q96HR9-2): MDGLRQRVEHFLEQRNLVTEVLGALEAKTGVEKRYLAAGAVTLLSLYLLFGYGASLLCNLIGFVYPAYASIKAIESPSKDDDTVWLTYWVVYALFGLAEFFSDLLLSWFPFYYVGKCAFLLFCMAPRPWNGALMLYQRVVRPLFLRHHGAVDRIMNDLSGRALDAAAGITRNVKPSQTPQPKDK
# T2 sequence (P42892 whole entry): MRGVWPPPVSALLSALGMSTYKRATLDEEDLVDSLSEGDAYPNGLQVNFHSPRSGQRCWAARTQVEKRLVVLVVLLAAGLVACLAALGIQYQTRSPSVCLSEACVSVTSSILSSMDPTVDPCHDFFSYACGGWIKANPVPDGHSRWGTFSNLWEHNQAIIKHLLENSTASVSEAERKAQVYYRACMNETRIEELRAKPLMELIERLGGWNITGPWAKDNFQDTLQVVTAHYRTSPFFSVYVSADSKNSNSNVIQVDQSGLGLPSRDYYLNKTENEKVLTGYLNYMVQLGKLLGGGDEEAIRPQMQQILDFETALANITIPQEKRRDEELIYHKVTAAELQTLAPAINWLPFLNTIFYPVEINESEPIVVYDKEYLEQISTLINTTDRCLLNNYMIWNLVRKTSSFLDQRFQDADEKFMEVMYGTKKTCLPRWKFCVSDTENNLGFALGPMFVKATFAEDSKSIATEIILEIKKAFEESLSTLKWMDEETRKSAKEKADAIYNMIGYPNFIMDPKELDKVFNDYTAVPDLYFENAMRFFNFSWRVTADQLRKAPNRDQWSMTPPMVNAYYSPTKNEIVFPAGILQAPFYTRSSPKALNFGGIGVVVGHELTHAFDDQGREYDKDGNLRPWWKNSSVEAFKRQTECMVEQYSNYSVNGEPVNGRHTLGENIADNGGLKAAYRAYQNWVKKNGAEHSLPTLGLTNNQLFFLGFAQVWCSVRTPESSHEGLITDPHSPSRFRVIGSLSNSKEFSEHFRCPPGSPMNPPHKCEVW
# T5 sequence (A0FGR8 whole entry): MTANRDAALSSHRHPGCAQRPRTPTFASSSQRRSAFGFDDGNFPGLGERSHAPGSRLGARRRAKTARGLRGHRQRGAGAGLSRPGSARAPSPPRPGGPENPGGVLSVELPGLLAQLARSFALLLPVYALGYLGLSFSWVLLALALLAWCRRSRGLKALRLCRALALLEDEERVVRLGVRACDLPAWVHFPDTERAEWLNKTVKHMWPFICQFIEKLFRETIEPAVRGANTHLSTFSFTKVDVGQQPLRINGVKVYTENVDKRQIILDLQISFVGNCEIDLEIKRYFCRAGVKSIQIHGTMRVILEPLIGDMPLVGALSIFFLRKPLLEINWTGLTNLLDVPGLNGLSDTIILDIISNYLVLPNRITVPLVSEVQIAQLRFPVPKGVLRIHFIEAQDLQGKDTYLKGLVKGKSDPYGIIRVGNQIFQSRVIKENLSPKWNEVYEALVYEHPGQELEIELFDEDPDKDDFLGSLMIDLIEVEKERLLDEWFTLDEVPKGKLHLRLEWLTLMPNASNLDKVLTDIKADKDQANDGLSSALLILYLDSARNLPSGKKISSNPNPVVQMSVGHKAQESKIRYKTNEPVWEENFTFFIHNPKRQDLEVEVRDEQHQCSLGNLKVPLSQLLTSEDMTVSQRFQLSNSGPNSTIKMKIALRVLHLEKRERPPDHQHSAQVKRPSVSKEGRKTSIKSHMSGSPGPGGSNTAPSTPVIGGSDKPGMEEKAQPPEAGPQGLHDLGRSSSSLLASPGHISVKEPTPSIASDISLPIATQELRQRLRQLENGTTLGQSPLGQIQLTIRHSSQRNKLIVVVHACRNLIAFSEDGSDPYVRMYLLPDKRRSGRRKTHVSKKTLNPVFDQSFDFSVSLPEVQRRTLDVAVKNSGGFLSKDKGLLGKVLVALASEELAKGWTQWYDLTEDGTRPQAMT
# T11 sequence (Q9UHD9 whole entry): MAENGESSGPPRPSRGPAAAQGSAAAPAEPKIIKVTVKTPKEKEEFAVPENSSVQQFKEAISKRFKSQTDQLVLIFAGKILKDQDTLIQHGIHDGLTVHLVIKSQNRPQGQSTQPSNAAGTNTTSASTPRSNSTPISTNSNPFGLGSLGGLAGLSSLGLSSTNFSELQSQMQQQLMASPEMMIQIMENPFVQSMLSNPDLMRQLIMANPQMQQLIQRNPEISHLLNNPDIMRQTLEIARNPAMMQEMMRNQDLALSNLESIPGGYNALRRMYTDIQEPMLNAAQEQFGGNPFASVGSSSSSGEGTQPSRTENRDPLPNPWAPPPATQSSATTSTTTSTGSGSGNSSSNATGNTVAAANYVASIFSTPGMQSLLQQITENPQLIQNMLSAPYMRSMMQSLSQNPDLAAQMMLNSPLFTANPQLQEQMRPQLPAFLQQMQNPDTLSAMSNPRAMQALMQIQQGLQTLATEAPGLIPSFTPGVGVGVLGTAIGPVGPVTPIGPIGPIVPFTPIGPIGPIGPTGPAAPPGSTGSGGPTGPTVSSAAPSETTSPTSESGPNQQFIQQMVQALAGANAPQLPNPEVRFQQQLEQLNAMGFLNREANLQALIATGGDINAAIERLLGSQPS
# T4 sequence (P07099 whole entry): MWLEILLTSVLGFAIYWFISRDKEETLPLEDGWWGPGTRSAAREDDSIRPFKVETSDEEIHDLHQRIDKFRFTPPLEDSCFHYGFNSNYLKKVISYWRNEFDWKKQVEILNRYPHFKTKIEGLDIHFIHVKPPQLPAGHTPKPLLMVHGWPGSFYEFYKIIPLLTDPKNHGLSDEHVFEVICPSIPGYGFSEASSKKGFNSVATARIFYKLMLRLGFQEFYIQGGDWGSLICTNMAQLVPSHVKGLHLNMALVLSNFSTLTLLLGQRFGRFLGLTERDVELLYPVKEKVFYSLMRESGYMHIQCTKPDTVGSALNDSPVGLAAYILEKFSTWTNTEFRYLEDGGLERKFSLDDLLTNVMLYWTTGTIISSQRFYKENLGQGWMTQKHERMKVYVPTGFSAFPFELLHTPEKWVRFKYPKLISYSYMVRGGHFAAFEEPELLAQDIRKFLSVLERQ
# T12 sequence (O75844 whole entry): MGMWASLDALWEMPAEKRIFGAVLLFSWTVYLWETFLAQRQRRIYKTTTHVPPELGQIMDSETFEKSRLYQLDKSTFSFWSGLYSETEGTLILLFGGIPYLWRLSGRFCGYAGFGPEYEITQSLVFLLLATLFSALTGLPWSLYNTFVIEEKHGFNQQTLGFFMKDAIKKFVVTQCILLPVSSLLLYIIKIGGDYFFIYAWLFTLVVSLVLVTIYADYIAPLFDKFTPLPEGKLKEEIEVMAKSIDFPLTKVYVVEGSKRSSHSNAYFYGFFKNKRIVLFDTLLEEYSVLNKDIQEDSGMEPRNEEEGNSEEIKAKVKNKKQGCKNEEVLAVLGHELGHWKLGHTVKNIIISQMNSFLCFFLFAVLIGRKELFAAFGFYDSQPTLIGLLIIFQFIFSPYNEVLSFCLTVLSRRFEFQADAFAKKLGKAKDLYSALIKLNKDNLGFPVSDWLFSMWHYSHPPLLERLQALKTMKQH
# T10 sequence (Q9BYE2 whole entry): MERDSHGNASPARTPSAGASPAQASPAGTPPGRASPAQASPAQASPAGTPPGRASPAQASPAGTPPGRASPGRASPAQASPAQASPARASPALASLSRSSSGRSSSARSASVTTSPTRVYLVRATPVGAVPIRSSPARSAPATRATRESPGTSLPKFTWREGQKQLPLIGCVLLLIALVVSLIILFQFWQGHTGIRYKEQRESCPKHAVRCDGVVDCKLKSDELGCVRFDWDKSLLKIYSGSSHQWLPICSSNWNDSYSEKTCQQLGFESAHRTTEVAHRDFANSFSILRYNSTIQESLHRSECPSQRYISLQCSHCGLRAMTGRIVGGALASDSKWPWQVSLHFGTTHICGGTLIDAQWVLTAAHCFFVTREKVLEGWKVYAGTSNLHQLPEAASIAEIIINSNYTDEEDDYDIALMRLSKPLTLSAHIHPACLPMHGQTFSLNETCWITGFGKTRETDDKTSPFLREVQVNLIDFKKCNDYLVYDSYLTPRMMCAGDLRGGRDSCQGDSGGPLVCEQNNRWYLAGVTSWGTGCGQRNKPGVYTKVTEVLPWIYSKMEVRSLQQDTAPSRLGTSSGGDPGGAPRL
# T8 sequence (O60831 whole entry): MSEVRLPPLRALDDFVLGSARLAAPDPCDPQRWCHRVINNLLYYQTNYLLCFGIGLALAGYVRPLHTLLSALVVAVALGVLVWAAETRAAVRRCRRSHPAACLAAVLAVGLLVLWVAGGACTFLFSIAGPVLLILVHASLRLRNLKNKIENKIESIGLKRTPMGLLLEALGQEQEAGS
# T6 sequence (A1L0T0 whole entry): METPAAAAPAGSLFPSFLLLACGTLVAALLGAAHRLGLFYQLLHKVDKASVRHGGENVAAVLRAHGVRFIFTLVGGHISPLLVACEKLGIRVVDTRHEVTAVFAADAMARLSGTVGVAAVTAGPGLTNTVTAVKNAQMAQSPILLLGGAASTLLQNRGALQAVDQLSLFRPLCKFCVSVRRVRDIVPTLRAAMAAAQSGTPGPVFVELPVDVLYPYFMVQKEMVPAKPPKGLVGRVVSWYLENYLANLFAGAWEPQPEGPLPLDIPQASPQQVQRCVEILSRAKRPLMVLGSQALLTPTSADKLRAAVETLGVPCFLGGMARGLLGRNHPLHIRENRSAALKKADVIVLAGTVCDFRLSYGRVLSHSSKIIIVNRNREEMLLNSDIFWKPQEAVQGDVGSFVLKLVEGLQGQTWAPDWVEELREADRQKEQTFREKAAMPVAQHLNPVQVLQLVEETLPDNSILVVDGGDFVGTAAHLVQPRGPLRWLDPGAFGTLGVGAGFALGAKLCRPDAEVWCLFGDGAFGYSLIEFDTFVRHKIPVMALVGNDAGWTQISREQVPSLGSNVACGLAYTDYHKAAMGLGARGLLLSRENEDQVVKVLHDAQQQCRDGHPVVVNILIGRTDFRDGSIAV
smiles,measurement,setting,value
CCC(=C(c1ccccc1)c1ccc(OCCN(C)Cc2cn(CCOCCOCCOCCOCCOCCNC(=O)CCC(NC(=O)c3ccc(N(C)Cc4cnc5nc(N)nc(N)c5n4)cc3)C(=O)O)nn2)cc1)c1ccccc1 (stereo not shown) [MTX-PEG6-tamoxifen],Recurrence (x/4),ATL2,1 x/4
same,Recurrence (x/4),ECE1; [1],1 x/4
same,Recurrence (x/4),ECE1; [2],1 x/4
same,Recurrence (x/4),EI24,2 x/4
same,Recurrence (x/4),EPHX1,1 x/4
same,Recurrence (x/4),ESYT2; [1],1 x/4
same,Recurrence (x/4),ESYT2; [2],1 x/4
same,Recurrence (x/4),ILVBL,1 x/4
same,Recurrence (x/4),PCSK5,1 x/4
same,Recurrence (x/4),PRAF2,1 x/4
same,Recurrence (x/4),REEP6; [1],4 x/4
same,Recurrence (x/4),REEP6; [2],3 x/4
same,Recurrence (x/4),TMPRSS13,1 x/4
same,Recurrence (x/4),UBQLN2; [1],1 x/4
same,Recurrence (x/4),UBQLN2; [2],1 x/4
same,Recurrence (x/4),ZMPSTE24,1 x/4
